Results taken from patent US20240408183A1, “KYNURENINE AMINOTRANSFERASE AND PRODUCTS THEREOF FOR THE TREATMENT OF INFLAMMATORY BOWEL DISEASES” (Institut National De Recherche Pour L'Agriculture, …, priority 2021, published 2024).

Tested on: mice submitted to DSS-induced colitis
Assay: DSS-induced colitis model in mice
Assay type: in vivo, mouse (C57BL/6JRj)
Conditions: for protection against DSS-induced colitis (body weight loss, DAI, colon length, histological score): FIG. 2, oral administration, n=16-20 mice per group; for protection from colitis: intraperitoneal injection, FIG. 3, n=10 mice per group; for colonic expression of pro-inflammatory cytokines such as IL-1 or IL-17: oral treatment, measured by Nanostring technology, data not shown; for colon length / histological score: day twelve
Experimental: C57BL/6JRj from Janvier lab, 7 weeks old, were housed in our specific pathogen free animal facility at IERP (INRA, Jouy en Josas, France). Five to ten female mice per group were used in all experiment, were maintained in a temperature controlled (23° C.) facility with a strict 12 h light/dark cycles and were given free access to food and water. After one acclimation week, we changed water with DSS 2% (MP Biomedical) during 7 days (day 0 to day 7), and a
recovery period was practiced until day 12 (during 5 days). Body weight loss and DAI (disease activity index) were performed daily. After 12 days the samples were harvested.
Colon distal part (cut in three parts) was harvested at day 12 after DSS model and put directly in PFA (Rothi®—Histofix 4%) during 48 h and transferred in ethanol 70% until the standard pre-fixation automat and paraffin embedded. HES coloration was practiced on 5Im cut.
Data were analyzed using Prism version 7 (Graphpad Software, San Diego, USA). The non-parametric Mann Withney test or the parametric one-way ANOVA tests with multiple Bonferroni's comparison tests were performed. Values are expressed as mean±SEM. Statistical significance was defined at a p-value ****<0.0001, ***<0.001, **<0.01, *<0.05.

[1] = oral, each day, 8 mg of KYNA / 6 mg of XANA per mouse
[2] = oral, each day, 8 mg of KYNA / 6 mg of XANA per mouse, measured daily, DSS 2%

In the case of `O=C(O)c1cc(=O)c2ccccc2[nH]1` [KYNA, kynurenic acid, reference compound], the “protection against DSS-induced colitis (body weight loss, DAI, colon length, histological score)” value is reported as “protect against DSS-induced colitis”, the protection from colitis is reported as “induces protection similar to that observed when these metabolites are given orally” and the “colonic expression of pro-inflammatory cytokines such as IL-1 or IL-17” value is reported as “reduced”. For the same compound, the colon length [1] was “longer”, the histological score [1] was “lower” and the “activity index of colitis (DAI)” value [2] was “anti-inflammatory effect”. For the same compound, the weight loss [2] was “anti-inflammatory effect”.
`O=C(O)c1cc(O)c2cccc(O)c2n1` [XANA, xanthurenic acid] was tested, and the “protection against DSS-induced colitis (body weight loss, DAI, colon length, histological score)” value was “protect against DSS-induced colitis”, the protection from colitis was “induces protection similar to that observed when these metabolites are given orally” and the “colonic expression of pro-inflammatory cytokines such as IL-1 or IL-17” value was “reduced”. The colon length [1] was “longer”, the histological score [1] was “lower” and the weight loss [2] was “anti-inflammatory effect”.
